Experimental data: paper PMC6384922, “Potent in Vitro α-Glucosidase Inhibition of Secondary Metabolites Derived from Dryopteris cycadina” (Molecules, 2019)
Where “and” joins values, the source holds several entries; their conditions need not be identical. Equal entries are not always repeated. Where two headings read alike, the source gives them in different places.

How the values were obtained:
[1] = target: T1, α-glucosidase (EC3.2.1.20) (Saccharomyces cerevisiae, UniProt P07265); assay: biochemical; details: for IC50: α-glucosidase, mean ± SEM of three independent readings; for inhibition at 500 µM: read-out: maximum α-glucosidase inhibitory activity (% inhibition)
T1 construct: purchased Sigma Aldrich
T1 sequence (P07265 whole entry): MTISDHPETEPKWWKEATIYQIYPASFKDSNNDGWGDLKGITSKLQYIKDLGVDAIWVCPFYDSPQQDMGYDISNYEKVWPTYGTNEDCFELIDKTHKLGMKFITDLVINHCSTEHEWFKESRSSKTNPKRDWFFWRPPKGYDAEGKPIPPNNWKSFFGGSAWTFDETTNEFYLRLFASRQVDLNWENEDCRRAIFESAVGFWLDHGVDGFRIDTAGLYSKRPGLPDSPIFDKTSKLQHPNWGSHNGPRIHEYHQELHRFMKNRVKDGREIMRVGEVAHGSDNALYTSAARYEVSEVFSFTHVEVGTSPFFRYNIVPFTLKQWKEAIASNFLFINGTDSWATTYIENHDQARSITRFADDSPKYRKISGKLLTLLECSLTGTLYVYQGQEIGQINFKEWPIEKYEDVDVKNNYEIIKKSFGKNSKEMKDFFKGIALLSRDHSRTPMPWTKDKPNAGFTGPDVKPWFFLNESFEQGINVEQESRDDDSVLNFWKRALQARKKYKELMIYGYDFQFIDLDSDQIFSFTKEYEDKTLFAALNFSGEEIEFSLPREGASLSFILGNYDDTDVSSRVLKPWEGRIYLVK
Description: The α-glucosidase (Saccharomyces cerevisiae) inhibitory assay was carried out with slight modifications according to the method described in [21, 26, 27]. For the evaluation of α-glucosidase inhibitory activity, 10 µl of freshly prepared phosphate buffer (pH 6.8) were plated in triplicate for a micro-well plate with the help of a micropipette. Then, 30 µL of α-glucosidase enzyme with a concentration of 0.017 units/mL of 70% ethanol and 10 µL of test compound solution were added to the same well plate. The plates were then incubated for 15 min at 37 °C and an initial reading was taken at 405 nm using the ELISA micro plate reader. Furthermore, 100 µl of 0.7mM PNPG substrate was added to each well of the plate and again incubated at 37 °C for 30 min, forming a yellow color. The final reading was taken again at λ max 405 nm using the ELISA plate reader. […] Each reading was taken in triplicate. The percent inhibition was calculated using the following formula, % inhibition = [(A negative control − A test sample)/A negative control] × 100, where A is absorbance.
The half-maximal inhibitory concentration values were determined using the Graphpad Prism version 7.0 software (San Diego, CA, USA. All values are represented as mean ± SEM.

[2] = target: T1, α-glucosidase (EC3.2.1.20); parameters: method as in PMID 18341288; details: cited from earlier work

CC[C@H](CC[C@@H](C)[C@H]1CC[C@H]2[C@@H]3CC=C4C[C@@H](O)CC[C@]4(C)[C@H]3CC[C@]12C)C(C)C [Compound 1, β-Sitosterol]
IC50 ([1]; IC50 ± SEM): 143 ± 0.47 µM
inhibition at 500 µM [1]: 92.9%
α-glucosidase inhibitory activity in previous studies [2]: inactive

CCC(CCC(C)C1CCC2C3CC=C4CC(OC5OC(CO)C(O)C(O)C5O)CCC4(C)C3CCC12C)C(C)C [Compound 2, β-Sitosterol3-O-β-D-glucopyranoside]
inhibition at 500 µM [1]: 92%
IC50 ([1]; read-out: IC50 ± SEM): 314 ± 4.58 µM

Cc1ccc(C2Oc3cc(O)cc(O)c3C(=O)C2O)cc1 (stereo not shown) [Compound 3, 3,5,7-trihydroxy-2-(p-tolyl) chorman-4-one]
IC50 ([1]; IC50 ± SEM): 136 µM and 133 µM
inhibition at 500 µM [1]: 94%
